US20260284011A1, “COMPOUNDS FOR RESTORING SUSCEPTIBILITY TO BETA-LACTAM ANTIBIOTICS” (UNIVERSITY OF NOTRE DAME DU LAC, priority 2023, published 2026)

Legend:
[1] = test system: MRSA FPR3757; assay: Neutropenic thigh infection model; assay type: in vivo, mice; conditions: MEM 50 mg·kg^−1 ip, 4 20 mg·kg^−1 sc, thighs at 24 h
Experimental: (§1) The neutropenic thigh infection model in mice is commonly used to test efficacy of antibacterial agents. It is a highly standardized and reproducible assay that evaluates attenuation of bacterial load (and not animal survival) as the endpoint. All current clinical antibiotics are evaluated in this model. The direct injection of bacteria into the thighs of mice mimics a human soft-tissue infection. Prior to infection, mice are made neutropenic by injection of cyclophosphamide to cause the temporary depletion of neutrophils, dampening the immune response and making mice more susceptible to infection. […] The potentiation of activity of β-lactam antibiotics by compound 4 observed in vitro, translates to in vivo activity.
(§2) Animals. Outbred 8-week-old female ICR mice for PK and neutropenic thigh infection studies were purchased from Envigo, Indianapolis, IN. The average weight of the mice for the PK study was 30 g (range 26.1 to 33.1 g); mice in the neutropenic thigh infection weights ranged from 24.2 to 37.7 g and were on average 29 g at the initiation of the study. Mice were housed in polycarbonate shoebox cages (for the PK study) or in disposable cages (for the infection studies) with ¼-inch corncob (The Andersons Inc., Maumee, OH) and Alpha-Dri (Shepherd Specialty Papers, Inc., Richland, MI) bedding with a 12-h light/dark cycle at 72° F. The animals were given food (Teklad 2918 irradiated extruded rodent diet) and water ad libitum. The food and water were autoclaved for the infection studies. All procedures were performed in accordance with and approved by the University of Notre Dame Institutional Animal Care and Use Committee.
(§3) Neutropenic thigh infection studies. Mice (n=5 per group, total of 155 mice) were made neutropenic by injection of cyclophosphamide (Sigma-Aldrich, St. Louis, MO) intraperitoneally at 200 mg·kg^−1 (100 μL of a 60 mg·mL^−1 solution) on days −4 and −1. MRSA NRS21 and FPR3757 were grown in Tryptic Soy Agar and diluted to a final concentration of 10^6 CFU·mL^−1 in Brain-heart Infusion. On day 0, 100 μL of bacterial inoculum was injected intramuscularly into each of the right and left thighs. […] MEM was given intraperitoneally at 50 or 100 mg·kg^−1. […] MEM was given intraperitoneally at 50 or 100 mg·kg^−1 at 1 h, 5 h, 9 h, 13 h, 17 h, and 21 h after infection. […] MEM was prepared in 10% DMSO/20% Tween80/70% saline (0.9% NaCl in sterilized water). A vehicle group was included. At 24 h after infection, the mice were euthanized. Both thighs were dissected aseptically, weighed, and homogenized with two volumes of 1×PBS in a Bullet blender (Next Advance, Inc., Averill Park, NY) at 4° C., followed by centrifugation. […] The number of colonies were counted. […]

[2] = test system: MRSA NRS21; assay: Neutropenic thigh infection model; assay type: in vivo, mice; conditions: single agent (4 20 mg·kg^−1 or OXA 40 mg·kg^−1 sc at 1, 9, 17 h), 24 h
Experimental: as §1, §2, §3

[3] = test system: NRS21; assay: Time-kill assay; assay type: cell-based, Staphylococcus aureus; conditions: for antibacterial activity as single-drug treatment: FIG. 3, 24 h, OXA 32 mg·L^−1, 4 8 mg·L^−1
Experimental: Time-kill assay. MRSA strains (NRS21, NRS70, NRS382, NRS404, HFH 29568, and HFH 30495) were grown overnight on tryptic soy agar plate. Bacteria were diluted in Muller-Hinton broth containing 2% NaCl to […] CFU·mL^−1. […] For MEM and CPT, cation-adjusted Muller-Hinton broth without 2% NaCl was used. Aliquots were taken at 0, 3, 6, 9, 12, and 24 h and were diluted serially for bacterial counts. The assay was done in triplicate.

[4] = test system: strain FPR3757 (a USA300 strain); assay: Checkerboard assay; assay type: cell-based, Staphylococcus aureus; conditions: 24-h incubation
Experimental: Synergy with β-Lactams and Time-Kill Assays. […] In this assay, the antibiotics are compared individually and in combination. The fractional inhibitory concentration (FIC) index is calculated. Synergy is defined as an FIC value ≤0.5, indifference as FIC >0.5 to ≤4, and antagonism as FIC >4.
Checkerboard assay. […] The final inoculum in each well was 5×10^5 CFU·mL^−1, and the result was read after 24-h incubation at 37° C. The fractional inhibitory concentration (FIC) index was calculated for each combination. An FIC index of ≤0.5 is considered synergistic. The experiment was done in triplicates.

SMILES	log reduction compared to vehicle [1] [log]	decrease in bacterial counts compared to vehicle-treated mice [2]	antibacterial activity as single-drug treatment [3]	log increase in bacterial growth at 24 h ([3]; compound 4 at 8 mg·L^−1) [log]	FIC index, 4 with MEM [4]	log increase compared to initial bacterial count at 0 h ([3]; OXA at 32 mg·L^−1 by itself) [log]
N#Cc1ccc2nc(SCB(O)O)n(Cc3ccc(C(F)(F)F)cc3C(F)(F)F)c2c1 [Compound 4, (((1-(2,4-bis(trifluoro-methyl)benzyl)-6-cyano-1H-benzo[d]imidazol-2-yl)thio)methyl)boronic acid]	0.06	did not show a statistically significant decrease in bacterial counts	did not show antibacterial activity	4.1	0.13	–
C[C@@H](O)[C@H]1C(=O)N2C(C(=O)O)=C(S[C@@H]3CN[C@H](C(=O)N(C)C)C3)[C@H](C)[C@H]12 [MEM, meropenem]	1.2	–	–	–	0.13	–
Cc1onc(-c2ccccc2)c1C(=O)N[C@@H]1C(=O)N2[C@@H]1SC(C)(C)[C@@H]2C(=O)O [OXA, oxacillin]	–	did not show a statistically significant decrease in bacterial counts	did not show antibacterial activity	–	–	1.9
